Experimental data taken from patent US10065990B2, “Cyclic peptide compound, and preparation method, pharmaceutical composition and use thereof” (HANGZHOU GUANYU BIO-MEDICAL CO., LTD, priority 2013, dated 2018).
Read-outs that look alike come from different tables or passages of the source. Each block holds one compound with its values, some of them ahead of it.

What was measured:
[1] = system: HT1080 (human fibrosarcoma cells); experiment: MTT cancer cell growth inhibition; format: cell-based; settings: Homo sapiens, HT-1080, 72 h, MTT
Summary of the method: (§1)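 GI50 values come from MTT viability: after 72 h compound exposure (final 10^−5–10^−10 M, three wells each) of cells plated overnight at 1500/well in 10% FBS medium, MTT was given for 4 h. The DMSO-solubilised formazan was then measured at 570 nm.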

[2] = system: U937 (human leukemia cells); experiment: MTT cancer cell growth inhibition; format: cell-based; settings: Homo sapiens, U-937, 72 h, MTT
Summary of the method: as §1

[3] = system: MOLT-4 (human acute lymphoblastic leukemia cells); experiment: MTT cancer cell growth inhibition; format: cell-based; settings: Homo sapiens, MOLT-4, 72 h, MTT
Summary of the method: as §1

[4] = system: SGC-7901 (human gastric cancer cells); experiment: MTT cancer cell growth inhibition; format: cell-based; settings: Homo sapiens, SGC-7901, 72 h, MTT, 72 hours incubation, SGC-7901 cells; read-out: GI50 SGC-7901
Summary of the method: as §1

[5] = system: H1975 (non-small cell lung adenocarcinoma); experiment: MTT cancer cell growth inhibition; format: cell-based; settings: Homo sapiens, NCI-H1975, 72 h, MTT, 72 hours incubation, H1975 cells; read-out: GI50 H1975
Summary of the method: as §1

[6] = system: MDA-MB-231 (breast cancer cells); experiment: MTT cancer cell growth inhibition; format: cell-based; settings: Homo sapiens, MDA-MB-231, 72 h, read-out: GI50 MDA-MB-231, MTT, 72 hours incubation, MDA-MB-231 cells
Summary of the method: as §1

[7] = system: Huh-7 (human hepatoma cells); experiment: MTT cancer cell growth inhibition; format: cell-based; settings: Homo sapiens, Huh-7, 72 h, MTT, 72 hours incubation, Huh-7 cells; read-out: GI50 Huh-7
Summary of the method: as §1

[8] = system: KBM5-T315I (human chronic myelogenous leukemia); experiment: MTT cancer cell growth inhibition; format: cell-based; settings: Homo sapiens, 72 h, MTT, 72 hours incubation, KBM5-T315I cells; read-out: GI50 KBM5-T315I
Summary of the method: as §1

[9] = system: A549 (human lung cancer cells); experiment: MTT cancer cell growth inhibition; format: cell-based; settings: Homo sapiens, A549, 72 h, MTT
Summary of the method: as §1

[10] = system: K562 (human leukemia cells); experiment: MTT cancer cell growth inhibition; format: cell-based; settings: Homo sapiens, K562, 72 h, MTT, 72 hours incubation, K562 cells; read-out: GI50 K562
Summary of the method: as §1

[11] = system: BGC-823 (human gastric cancer cells); experiment: MTT cancer cell growth inhibition; format: cell-based; settings: Homo sapiens, BGC-823, 72 h, MTT
Summary of the method: as §1

[12] = system: PANC-1 (Pac-1, human pancreatic cancer cells); experiment: MTT cancer cell growth inhibition; format: cell-based; settings: Homo sapiens, PANC-1, 72 h, MTT
Summary of the method: as §1

[13] = system: MCF-7 (human breast cancer cells); experiment: MTT cancer cell growth inhibition; format: cell-based; settings: Homo sapiens, MCF7, 72 h
Summary of the method: as §1

[14] = system: Bel-7402 (human hepatoma cells); experiment: MTT cancer cell growth inhibition; format: cell-based; settings: Homo sapiens, Bel-7402, 72 h, MTT, 72 hours incubation, Bel-7402 cells; read-out: GI50 Bel-7402
Summary of the method: as §1

[15] = system: lncap (prostate cancer cells); experiment: MTT cancer cell growth inhibition; format: cell-based; settings: Homo sapiens, LNCaP, 72 h, MTT
Summary of the method: as §1

[16] = system: Hela (human cervical cancer cells); experiment: MTT cancer cell growth inhibition; format: cell-based; settings: Homo sapiens, HeLa, 72 h, MTT
Summary of the method: as §1

[17] = system: DU145 (human prostate cancer cells); experiment: MTT cancer cell growth inhibition; format: cell-based; settings: Homo sapiens, DU-145, 72 h, MTT
Summary of the method: as §1

[18] = system: KBM-5 (human chronic myelogenous leukemia); experiment: MTT cancer cell growth inhibition; format: cell-based; settings: Homo sapiens, KBM5, 72 h, MTT, 72 hours incubation, KBM-5 cells; read-out: GI50 KBM-5
Summary of the method: as §1

[19] = system: N-87 (human gastric cancer cells); experiment: MTT cancer cell growth inhibition; format: cell-based; settings: Homo sapiens, 72 h, MTT, 72 hours incubation, N-87 cells; read-out: GI50 N-87
Summary of the method: as §1

[20] = system: HCC827 (human non-small cell lung cancer cells); experiment: MTT cancer cell growth inhibition; format: cell-based; settings: Homo sapiens, HCC827, 72 h, MTT, 72 hours incubation, HCC827 cells; read-out: GI50 HCC827
Summary of the method: as §1

HDAC2 = HDAC2 (Homo sapiens, UniProt Q92769); experiment: HDAC biochemical activity measurement (fluorescent substrate deacetylation);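 also: HDAC2 enzyme with an acetyl-lysine fluorescent substrate, then developer added, fluorescence read at excitation 360 nm and emission 460 nm, inhibition measured across several compound concentrations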; settings: 37° C. 30 minutes
HDAC2, sequence (Q92769 whole entry, species assumed): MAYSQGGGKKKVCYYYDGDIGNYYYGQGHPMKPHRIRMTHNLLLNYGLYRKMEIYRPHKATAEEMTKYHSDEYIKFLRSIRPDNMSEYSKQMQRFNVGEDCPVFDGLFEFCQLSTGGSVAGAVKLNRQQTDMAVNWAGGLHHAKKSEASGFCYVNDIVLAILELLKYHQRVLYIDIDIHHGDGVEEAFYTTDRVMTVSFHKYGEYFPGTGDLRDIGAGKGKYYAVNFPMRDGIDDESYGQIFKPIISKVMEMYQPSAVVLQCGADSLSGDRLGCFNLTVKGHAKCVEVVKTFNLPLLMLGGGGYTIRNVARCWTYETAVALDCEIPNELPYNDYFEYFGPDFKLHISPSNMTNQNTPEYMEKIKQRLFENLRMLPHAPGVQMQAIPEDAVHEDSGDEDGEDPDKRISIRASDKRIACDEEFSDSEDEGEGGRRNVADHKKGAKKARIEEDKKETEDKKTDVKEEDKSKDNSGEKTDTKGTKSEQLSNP

HDAC1 = HDAC1 (Homo sapiens, UniProt Q13547); experiment: as above;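 also: fluorogenic acetyl-lysine substrate (20 µM) deacetylated by HDAC1, then developer releases fluorophore read at 360 nm excitation and 460 nm emission, inhibitor incubated 30 min at 37 °C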
HDAC1, sequence (Q13547 whole entry, species assumed): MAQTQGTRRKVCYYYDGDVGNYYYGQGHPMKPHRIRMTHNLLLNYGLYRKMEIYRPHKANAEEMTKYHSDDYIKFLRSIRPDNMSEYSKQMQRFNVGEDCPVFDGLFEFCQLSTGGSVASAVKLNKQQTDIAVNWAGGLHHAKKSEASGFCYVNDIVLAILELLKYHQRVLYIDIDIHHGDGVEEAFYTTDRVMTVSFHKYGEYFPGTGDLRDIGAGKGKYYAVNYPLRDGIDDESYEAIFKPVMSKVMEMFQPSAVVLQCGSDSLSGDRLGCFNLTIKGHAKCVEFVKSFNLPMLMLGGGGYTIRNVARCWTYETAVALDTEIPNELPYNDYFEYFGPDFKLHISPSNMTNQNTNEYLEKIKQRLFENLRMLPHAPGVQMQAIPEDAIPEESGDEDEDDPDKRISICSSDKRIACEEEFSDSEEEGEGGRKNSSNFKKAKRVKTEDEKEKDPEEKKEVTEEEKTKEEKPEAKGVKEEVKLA

HDAC3 = HDAC3 (Homo sapiens, UniProt O15379); experiment: as above;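 also: fluorogenic acetyl-lysine substrate (20 µM) deacetylated by HDAC3, then developer added for 15 min at room temperature, release of fluorophore read at excitation 360 nm, emission 460 nm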
HDAC3, sequence (O15379 whole entry, species assumed): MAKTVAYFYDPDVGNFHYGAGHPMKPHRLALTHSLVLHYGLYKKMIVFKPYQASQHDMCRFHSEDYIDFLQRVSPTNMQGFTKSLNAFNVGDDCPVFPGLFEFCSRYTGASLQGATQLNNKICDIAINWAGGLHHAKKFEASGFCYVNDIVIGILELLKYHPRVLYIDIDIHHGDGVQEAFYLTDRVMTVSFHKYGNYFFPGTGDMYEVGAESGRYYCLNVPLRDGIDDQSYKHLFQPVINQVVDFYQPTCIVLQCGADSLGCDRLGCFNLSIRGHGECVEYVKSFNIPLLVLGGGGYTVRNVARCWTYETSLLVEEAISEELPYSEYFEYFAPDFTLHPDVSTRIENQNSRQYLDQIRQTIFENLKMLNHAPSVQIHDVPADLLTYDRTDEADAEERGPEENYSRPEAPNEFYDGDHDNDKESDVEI
HDAC3, sequence (Q9Y618 395-489 partner limits assumed, species assumed): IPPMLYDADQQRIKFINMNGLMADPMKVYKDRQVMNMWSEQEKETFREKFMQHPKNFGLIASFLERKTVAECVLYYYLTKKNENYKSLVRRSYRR

[21] = 72 hours incubation, read-out: GI50 HT1
[22] = 72 hours incubation, read-out: GI50 U93
[23] = 72 hours incubation, read-out: GI50 Mol
[24] = 72 hours incubation, read-out: GI50 A54
[25] = 72 hours incubation, read-out: GI50 BG
[26] = 72 hours incubation, read-out: GI50 PAN
[27] = 72 hours incubation, read-out: GI50 MCF
[28] = 72 hours incubation, read-out: GI50 lnca
[29] = 72 hours incubation, read-out: GI50 Hela
[30] = 72 hours incubation, read-out: GI50 Du1
[31] = HDAC1, 37° C. 30 minutes, read-out: IC50 HDAC1
[32] = read-out: IC50 HDAC3, HDAC3, 37° C. 30 minutes
[33] = HT1080 cells, 72 hours incubation, read-out: GI50 HT1
[34] = U937 cells, 72 hours incubation, read-out: GI50 U93
[35] = MOLT-4 cells, 72 hours incubation, read-out: GI50 Mol
[36] = A549 cells, 72 hours incubation, read-out: GI50 A54
[37] = BGC-823 cells, 72 hours incubation, read-out: GI50 BG
[38] = PANC-1 cells, 72 hours incubation, read-out: GI50 PAN
[39] = MCF-7 cells, 72 hours incubation, read-out: GI50 MCF
[40] = lncap cells, 72 hours incubation, read-out: GI50 lnca
[41] = Hela cells, 72 hours incubation, read-out: GI50 Hela
[42] = DU145 cells, 72 hours incubation, read-out: GI50 Du1

Compound: C/C=C1\NC(=O)c2cc(SCCC)cc(n2)CNC(=O)C[C@@H](/C=C/CCSC(=O)CCCCCCC)OC(=O)[C@H](CC)NC1=O [Compound 175]
GI50 [1, 33]: 50 nM
GI50 [2, 34]: 40 nM
GI50 [3, 35]: 20 nM
GI50 [4]: 62 nM
GI50 [5]: 42 nM
GI50 [6]: 29 nM
GI50 [7]: 27 nM
GI50 [8]: 47 nM
GI50 [9, 36]: 100 nM
GI50 [10]: 39 nM
GI50 [11, 37]: 20 nM
GI50 [12, 38]: 50 nM
GI50 [13, 39]: 20 nM
GI50 [14]: 105 nM
GI50 [15, 40]: 80 nM
GI50 [16, 41]: 10 nM
GI50 [17, 42]: 30 nM
GI50 [18]: 42 nM
GI50 [19]: 49 nM
GI50 [20]: 13 nM
IC50 (HDAC2): 32 nM
IC50 (HDAC1; [31]): 41 nM
IC50 (HDAC3): 11 nM

Compound: C/C=C1\NC(=O)c2cccc(n2)CNC(=O)C[C@@H](/C=C/CCSC(=O)CCCCCCC)OC(=O)CNC1=O [Compound 235]
GI50 [1, 33]: 20 nM
GI50 ([1]; 72 hours, present invention, read-out: GI50 HT1080, a): 24 nM
GI50 ([2]; 72 hours, present invention, read-out: GI50 U937, a): 6 nM
GI50 [2, 34]: 60 nM
GI50 [3, 35]: 70 nM
GI50 ([3]; 72 hours, present invention, read-out: GI50 Molt-4, a): 7 nM
GI50 [4]: 42 nM
GI50 [5]: 63 nM
GI50 [6]: 45 nM
GI50 [7]: 38 nM
GI50 [8]: 92 nM
GI50 [9, 36]: 30 nM
GI50 ([9]; 72 hours, present invention, read-out: GI50 A549, a): 34 nM
GI50 [10]: 42 nM
GI50 [11, 37]: 40 nM
GI50 ([11]; 72 hours, present invention, read-out: GI50 BGC823, a): 43 nM
GI50 ([12]; 72 hours, present invention, read-out: GI50 PANC-1, a): 230 nM
GI50 [12, 38]: 230 nM
GI50 ([13]; 72 hours, present invention, read-out: GI50 MCF7, a): 56 nM
GI50 [13, 39]: 50 nM
GI50 [14]: 91 nM
GI50 ([15]; 72 hours, present invention, read-out: GI50 lncap, a): 40 nM
GI50 [15, 40]: 40 nM
GI50 [16, 41]: 40 nM
GI50 ([16]; 72 hours, present invention, read-out: GI50 Hela, a): 47 nM
GI50 [17, 42]: 30 nM
GI50 ([17]; 72 hours, present invention, read-out: GI50 Du145, a): 3 nM
GI50 [18]: 27 nM
GI50 [19]: 63 nM
GI50 [20]: 85 nM
IC50 (HDAC2): 19 nM
IC50 (HDAC1; [31]): 8 nM
IC50 (HDAC1; Table 2, read-out: IC50 HDAC1, a (compounds of the present invention)): < 10 nM
IC50 (HDAC3; [32]): 35 nM

Compound: CC(=O)SCC/C=C/[C@@H]1CC(=O)NCc2cccc(n2)C(=O)NC(=C(C)C)C(=O)N[C@@H](C(C)C)C(=O)O1 [Compound 20]
GI50 [1, 21]: 980 nM
GI50 [2, 22]: 20200 nM
GI50 [3, 23]: 130 nM
GI50 [4]: 63 nM
GI50 [5]: 35 nM
GI50 [6]: 96 nM
GI50 [7]: 72 nM
GI50 [8]: 33 nM
GI50 [9, 24]: 320 nM
GI50 [10]: 24 nM
GI50 [11, 25]: 1100 nM
GI50 [12, 26]: 10100 nM
GI50 [13, 27]: 1900 nM
GI50 [14]: 86 nM
GI50 [15, 28]: 5100 nM
GI50 [16, 29]: 10 nM
GI50 [17, 30]: 1980 nM
GI50 [18]: 61 nM
GI50 [19]: 62 nM
GI50 [20]: 52 nM
IC50 (HDAC2): 77 nM
IC50 (HDAC1; [31]): 183 nM
IC50 (HDAC1; Table 3, read-out: IC50 HDAC1, D (non-substituent)): 183 nM
IC50 (HDAC3; [32]): 45 nM

Further compounds by falling GI50 [4], results first:

GI50 [1, 21]: 70 nM
GI50 [2, 22]: 40 nM
GI50 [3, 23]: 30 nM
GI50 [4]: 45 nM
GI50 [5]: 43 nM
GI50 [6]: 35 nM
GI50 [7]: 35 nM
GI50 [8]: 55 nM
GI50 [9, 24]: 40 nM
GI50 [10]: 41 nM
GI50 [11, 25]: 70 nM
GI50 [12, 26]: 70 nM
GI50 [13, 27]: 50 nM
GI50 [14]: 74 nM
GI50 [15, 28]: 30 nM
GI50 [16, 29]: 70 nM
GI50 [17, 30]: 40 nM
GI50 [18]: 79 nM
GI50 [19]: 71 nM
GI50 [20]: 74 nM
IC50 (HDAC2): 53 nM
IC50 (HDAC1; [31]): 43 nM
IC50 (HDAC1; Table 3, column C, read-out: IC50 HDAC1, C (six-membered ring with substituents)): 43 nM
IC50 (HDAC3; [32]): 42 nM
Compound: C/C=C1\NC(=O)c2cc(F)cc(n2)CNC(=O)C[C@@H](/C=C/CCSC(=O)CCCC)OC(=O)[C@H](C(C)C)NC1=O [Compound 40]

GI50 [1, 21]: 80 nM
GI50 [2, 22]: 50 nM
GI50 [3, 23]: 20 nM
GI50 [4]: 37 nM
GI50 [5]: 26 nM
GI50 [6]: 39 nM
GI50 [7]: 47 nM
GI50 [8]: 51 nM
GI50 [9, 24]: 40 nM
GI50 [10]: 34 nM
GI50 [11, 25]: 20 nM
GI50 [12, 26]: 80 nM
GI50 [13, 27]: 30 nM
GI50 [14]: 25 nM
GI50 [15, 28]: 20 nM
GI50 [16, 29]: 40 nM
GI50 [17, 30]: 30 nM
GI50 [18]: 31 nM
GI50 [19]: 51 nM
GI50 [20]: 55 nM
IC50 (HDAC2): 29 nM
IC50 (HDAC1; [31]): 38 nM
IC50 (HDAC3): 53 nM
Compound: C/C=C1\NC(=O)c2nc(ccc2F)CCNC(=O)C[C@@H](/C=C/CCSC(C)=O)OC(=O)[C@H](C(C)C)NC1=O [Compound 103]
